{
  "source": "patent US7553496B2",
  "about": "“VEGF-A as an inhibitor of angiogenesis and methods of using same” (University of Kentucky Research Foundation, priority 2004, dated 2009)",
  "molecules": {"B1": {"name": "SPARC: recombinant human SPARC, secreted protein, acidic, rich in cysteine (protein, UniProt P09486 18-303, looked up)", "SPARC": "APQQEALPDETEVVEETVAEVTEVSVGANPVQVEVGEFDDGAEETEEEVVAENPCQNHHCKHGKVCELDENNTPMCVCQDPTSCPAPIGEFEKVCSNDNKTFDSSCHFFATKCTLEGTKKGHKLHLDYIGPCKYIPPCLDSELTEFPLRMRDWLKNVLVTLYERDEDNNLLTEKQKLRVKKIHENEKRLEAGDHPVELLARDFEKNYNMYIFPVHWQFGQLDQHPIDGYLSHTELAPLRAPLIPMEHCTTRFFETCDLDNDKYIALDEWAGCFGIKQKDIDKDLVI"}},
  "key": {"laser-induced CNV": {"tested_on": "laser-induced CNV", "assay": "Laser-induced choroidal neovascularization (CNV) volume, confocal microscopy", "format": "in vivo, mouse", "details": "for effect on VEGF-A-induced suppression of CNV: given with VEGF-A164 after laser injury"}, "VEGF-A": {"tested_on": "VEGF-A", "details": "mouse, in vivo"}, "c-kit": {"molecular_target": "c-kit (Homo sapiens, UniProt P10721)", "sequence (P10721 26-976)": "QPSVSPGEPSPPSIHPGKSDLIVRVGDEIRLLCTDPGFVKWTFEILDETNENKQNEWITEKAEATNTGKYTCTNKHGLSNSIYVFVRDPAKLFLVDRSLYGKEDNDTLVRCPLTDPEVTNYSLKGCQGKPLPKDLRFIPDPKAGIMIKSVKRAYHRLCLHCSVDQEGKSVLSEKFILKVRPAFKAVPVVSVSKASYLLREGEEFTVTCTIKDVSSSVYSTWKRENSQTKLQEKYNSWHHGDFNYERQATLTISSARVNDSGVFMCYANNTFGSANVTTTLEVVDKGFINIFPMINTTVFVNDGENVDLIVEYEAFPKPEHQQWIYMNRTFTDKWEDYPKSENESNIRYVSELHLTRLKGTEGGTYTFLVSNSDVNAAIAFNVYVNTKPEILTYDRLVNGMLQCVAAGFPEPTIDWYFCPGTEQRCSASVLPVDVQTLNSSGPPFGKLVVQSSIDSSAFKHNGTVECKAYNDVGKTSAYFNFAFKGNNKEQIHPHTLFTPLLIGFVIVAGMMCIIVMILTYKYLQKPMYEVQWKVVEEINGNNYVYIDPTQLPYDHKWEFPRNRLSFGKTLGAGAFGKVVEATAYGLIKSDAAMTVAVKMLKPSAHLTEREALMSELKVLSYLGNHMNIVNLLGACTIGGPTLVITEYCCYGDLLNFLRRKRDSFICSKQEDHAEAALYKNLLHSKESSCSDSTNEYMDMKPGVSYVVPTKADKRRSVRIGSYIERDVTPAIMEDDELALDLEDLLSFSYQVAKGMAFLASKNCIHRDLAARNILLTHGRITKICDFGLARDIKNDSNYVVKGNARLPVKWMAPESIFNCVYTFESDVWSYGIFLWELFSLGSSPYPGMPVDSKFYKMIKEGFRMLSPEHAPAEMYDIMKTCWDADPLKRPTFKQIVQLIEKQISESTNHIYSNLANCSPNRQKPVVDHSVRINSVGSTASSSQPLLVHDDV", "details": "cited from earlier work"}, "flt3": {"tested_on": "flt3", "details": "read-out: IC50 flt3; cited from earlier work"}, "[1]": {"tested_on": "platelet derived growth factor receptor (PDGFR)", "details": "cited from earlier work"}, "[2]": {"tested_on": "bone marrow derived endothelial cells (BMDECs)", "assay": "Bone marrow derived endothelial cell incorporation in GFP chimeric mice (flow cytometry)", "format": "in vivo, mouse", "details": "0.55 ng", "text": "We tested the effect of VEGF-A164 injection one day after laser injury in GFP chimeric mice 8 weeks following bone marrow transplantation in mice with engraftment exceeding 90%. In the RPE/choroid, GFP^+ cells were identified only at the site of laser injury and the immediate vicinity (data not shown). The bulk (>60%) of GFP^+ cells in the RPE/choroid following injury expressed either CD11b or F4/80, markers of monocytic lineage, while nearly all (>95%) CD11b^+ and F4/80^+ cells expressed GFP. […] The vast majority (>90%) of GFP^+CD31^+ cells, both in PBS- and VEGF-A164-treated eyes, also expressed CD11b or F4/80.\n(§1) Flow cytometry. Single cell suspensions isolated from mouse RPE/choroids via collagenase D (20 U/ml; Roche Diagnostics) treatment were incubated in Fc block (0.5 mg/ml; BD Pharmingen) for 15 min on ice. Rabbit antibody to mouse VEGFR-1 (1:250; Santa Cruz) coupled with Cy5-donkey antibody to rabbit IgG Ab (1:250) and Phycoerythrin-conjugated rat antibody to mouse VEGFR-2 (1:250; eBioscience) were used to quantitate cell surface receptor expression. […] DNA content was analyzed following incubation with propidium iodide (0.05 mg/ml; Molecular Probes) containing 0.1% Triton X-100 and RNase A (0.1 mg/ml; Roche)."}, "[3]": {"tested_on": "choroidal endothelial cells (CEC)", "assay": "Cell cycle distribution of CEC after laser injury (flow cytometry, propidium iodide)", "details": "mouse, in vivo", "description": "Flow cytometry. Single cell suspensions isolated from mouse RPE/choroids via collagenase D (20 U/ml; Roche Diagnostics) treatment were incubated in Fc block (0.5 mg/ml; BD Pharmingen) for 15 min on ice. Rabbit antibody to mouse VEGFR-1 (1:250; Santa Cruz) coupled with Cy5-donkey antibody to rabbit IgG Ab (1:250) and Phycoerythrin-conjugated rat antibody to mouse VEGFR-2 (1:250; eBioscience) were used to quantitate cell surface receptor expression. Macrophages defined as F4/80^+CD11c^− cells, were gated by rat antibody to mouse Cy5-F4/80 (1:30; Serotec) and hamster antibody to mouse FITC-CD11c (1:100; Serotec), CEC by FITC-conjugated rat antibody to mouse CD31 (1:250; BD Biosciences), and RPE cells by FITC-conjugated mouse antibody to human pan-cytokeratin (1:250; Sigma-Aldrich) staining following fixation with 4% paraformaldehyde and permeabilization with 1% Triton X-100 (Sigma Aldrich) and subjected to FACS analysis (FACSCalibur, BD Biosciences). DNA content was analyzed following incubation with propidium iodide (0.05 mg/ml; Molecular Probes) containing 0.1% Triton X-100 and RNase A (0.1 mg/ml; Roche)."}, "Ccl-2": {"tested_on": "Ccl-2", "assay": "Ccl-2 levels in RPE and choroid after laser injury (ELISA)", "format": "in vivo, mouse"}, "choroidal macrophages": {"tested_on": "choroidal macrophages", "assay": "Choroidal macrophage recruitment after laser injury (flow cytometry)", "format": "in vivo, mouse", "description": "Drug treatments. VEGF-A164 (4-12 ng), VEGF-A120 (2.7-27 ng), PLGF-1 (12.5-1,250 ng), mouse PLGF-2 (165-1,650 ng), mouse Ccl-2 (0.55 ng), neutralizing goat antibodies to mouse VEGF-A (5-20 ng), mouse VEGFR-1 (6-18 μg), mouse VEGFR-2 (25-250 ng), or rat NP-1 (200-500 ng; all R&D Systems), recombinant human SPARC (100-300 ng; purified in the laboratory of E. H. Sage) or neutralizing mouse antibody to human SPARC (4-12 μg; purified in the laboratory R. W. Brekken, University of Texas), neutralizing rabbit antibody to rat NP-2 (200-500 ng; gifts of D. D. Ginty, Johns Hopkins University and S. Niclou, Netherlands Institute for Brain Research (Shearer, M. C. et al. The astrocyte/meningeal cell interface is a barrier to neurite outgrowth which can be overcome by manipulation of inhibitory molecules or axonal signalling pathways. […]\nas §1, with “Single cell suspensions isolated from mouse RPE/choroids via collagenase D (20 U/ml; Roche Diagnostics) treatment were incubated in Fc block (0.5 mg/ml; BD Pharmingen) for 15 min on ice.” left out"}, "VEGFR-1": {"molecular_target": "VEGFR-1 (Homo sapiens, UniProt P17948)", "sequence (P17948 27-1338, species assumed)": "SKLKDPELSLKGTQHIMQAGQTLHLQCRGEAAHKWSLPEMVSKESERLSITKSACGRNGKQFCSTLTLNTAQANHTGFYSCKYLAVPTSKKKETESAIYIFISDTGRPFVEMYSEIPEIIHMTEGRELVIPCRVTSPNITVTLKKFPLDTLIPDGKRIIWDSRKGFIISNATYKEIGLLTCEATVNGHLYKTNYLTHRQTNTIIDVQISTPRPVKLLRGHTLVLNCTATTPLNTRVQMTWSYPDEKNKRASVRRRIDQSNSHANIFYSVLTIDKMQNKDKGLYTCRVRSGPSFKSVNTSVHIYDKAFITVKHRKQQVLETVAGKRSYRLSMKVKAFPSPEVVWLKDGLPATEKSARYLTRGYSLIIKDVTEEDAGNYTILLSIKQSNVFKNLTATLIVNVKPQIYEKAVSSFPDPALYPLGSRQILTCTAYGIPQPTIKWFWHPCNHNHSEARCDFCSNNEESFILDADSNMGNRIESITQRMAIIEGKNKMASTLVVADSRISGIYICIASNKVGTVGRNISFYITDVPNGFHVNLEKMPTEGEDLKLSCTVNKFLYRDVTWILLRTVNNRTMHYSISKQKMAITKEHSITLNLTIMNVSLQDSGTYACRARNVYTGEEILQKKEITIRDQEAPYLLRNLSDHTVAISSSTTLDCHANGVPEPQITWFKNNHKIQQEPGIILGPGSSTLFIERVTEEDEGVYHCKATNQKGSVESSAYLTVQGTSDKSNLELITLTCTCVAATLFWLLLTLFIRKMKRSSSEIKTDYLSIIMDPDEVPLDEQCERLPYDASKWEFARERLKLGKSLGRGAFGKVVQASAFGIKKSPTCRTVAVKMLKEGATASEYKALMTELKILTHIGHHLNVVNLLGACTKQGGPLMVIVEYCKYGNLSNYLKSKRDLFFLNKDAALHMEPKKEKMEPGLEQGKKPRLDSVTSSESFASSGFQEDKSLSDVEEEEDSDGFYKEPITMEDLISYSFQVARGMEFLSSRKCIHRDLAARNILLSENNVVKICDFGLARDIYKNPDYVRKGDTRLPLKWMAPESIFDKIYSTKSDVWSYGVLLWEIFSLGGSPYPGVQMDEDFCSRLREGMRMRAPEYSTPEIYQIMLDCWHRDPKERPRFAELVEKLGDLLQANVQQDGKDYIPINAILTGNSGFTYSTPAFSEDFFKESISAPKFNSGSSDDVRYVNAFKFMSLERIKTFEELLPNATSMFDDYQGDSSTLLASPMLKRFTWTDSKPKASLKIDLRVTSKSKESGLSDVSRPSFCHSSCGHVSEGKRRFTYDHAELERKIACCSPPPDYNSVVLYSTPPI", "details": "cited from earlier work"}, "[4]": {"details": "agent alone, intravitreous, immediately or one day after laser injury, wild-type mice, vs PBS"}},
  "note": "“Also recorded” adds a separate entry of the source.",
  "data": [
    {"molecule": "COC(=O)[C@@H](N)CCCNC(=N)N[N+](=O)[O-]", "note": "[L-NAME, N^ω-nitro-L-arginine methyl ester]", "values": [
      {"measurement": "effect on VEGF-A-induced suppression of CNV", "setting": "laser-induced CNV", "value": "did not reverse; also recorded: not affected"}
    ]},
    {"molecule": "Cc1occc(=O)c1[O-].Cc1occc(=O)c1[O-].[O]=[V+2]", "note": "[BMOV, bis(maltolato)oxovanadium(IV)]", "values": [
      {"measurement": "effect on VEGF-A-induced suppression of CNV", "setting": "laser-induced CNV", "value": "abrogated"}
    ]},
    {"molecule": "[Cl-].[Cl-].[Co+2]", "note": "[CoCl2]", "values": [
      {"measurement": "aggregate VEGF-A exposure (area under the curve) higher than after laser injury alone", "setting": "VEGF-A", "value": 52, "unit": "%"},
      {"measurement": "peak VEGF-A in RPE and choroid relative to maximal level following laser injury alone", "setting": "VEGF-A", "value": "less than double"}
    ]},
    {"molecule": "O.O.O.O.O.O.O.O.O.O=C([O-])[C@@H]1[O][Sb]2([O-])([O][Sb]34([OH])[O][C@H]([C@H](O)CO)[C@H]([O]3)[C@H](C(=O)[O-])[O]4)[O][C@H]([C@H](O)CO)[C@@H]1[O]2.[Na+].[Na+].[Na+]", "note": "[sodium stibogluconate]", "values": [
      {"measurement": "effect on VEGF-A-induced suppression of CNV", "setting": "laser-induced CNV", "value": "abolished"}
    ]},
    {"molecule": "OO", "note": "[H2O2]", "values": [
      {"measurement": "volume of CNV", "setting": "laser-induced CNV; [4]", "value": "decreased the volume of CNV; also recorded: inhibited"}
    ]},
    {"molecule": "Cc1cc2ncc(-c3ccccc3)nc2cc1C", "note": "[AG1295, 6,7-dimethyl-2-phenylquinoxaline]", "values": [
      {"measurement": "IC50", "setting": "c-kit", "value": 1800, "unit": "nM"},
      {"measurement": "IC50", "setting": "flt3", "value": 500, "unit": "nM"},
      {"measurement": "effect on VEGF-A-induced suppression of CNV", "setting": "laser-induced CNV", "value": "Neither AG1295 (15 ng) nor PHA665752 (0.4 ng) blocked"},
      {"measurement": "IC50", "setting": "[1]", "value": 400, "unit": "nM"}
    ]},
    {"molecule": "Ccl-2: exogenous recombinant Ccl-2, monocyte chemoattractant", "values": [
      {"measurement": "effect on CNV inhibited by VEGF-A antibody", "setting": "laser-induced CNV; 0.55 ng", "value": "restored the CNV"},
      {"measurement": "volume of CNV", "setting": "laser-induced CNV; Ccl2−/− or Ccr2−/− mice", "value": "restores CNV"},
      {"measurement": "volume of CNV", "setting": "laser-induced CNV; Ccl2−/− or Ccr2−/− mice, listed as Recombinant Ccl-2", "value": "restored CNV"},
      {"measurement": "effect on VEGF-A-induced suppression of CNV", "setting": "laser-induced CNV", "value": "abrogates"},
      {"measurement": "effect on VEGF-A-induced suppression of CNV", "setting": "laser-induced CNV; listed as recombinant Ccl-2", "value": "abrogated"},
      {"measurement": "effect on VEGF-A164 reduction in vasculogenesis", "setting": "[2]", "value": "abrogated"},
      {"measurement": "effect on clodronate liposome reduction of BMDEC incorporation", "setting": "[2]", "value": "did not abrogate"}
    ]},
    {"molecule": "Cc1[nH]c(/C=C2\\C(=O)Nc3ccc(S(=O)(=O)Cc4c(Cl)cccc4Cl)cc32)c(C)c1C(=O)N1CCC[C@@H]1CN1CCCC1", "note": "[PHA665752]", "values": [
      {"measurement": "effect on VEGF-A-induced suppression of CNV", "setting": "laser-induced CNV", "value": "Neither AG1295 (15 ng) nor PHA665752 (0.4 ng) blocked"}
    ]},
    {"molecule": "CC(C)c1cc(/C=C(\\C#N)C(=O)NCCCc2ccccc2)cc(C(C)C)c1O", "note": "[SU1498, (E)-3-(3,5-diisopropyl-4-hydroxyphenyl)-2-[(3-phenyl-n-propyl)amino-carbonyl]acrylonitrile]", "values": [
      {"measurement": "effect on VEGF-E-induced increase in CNV", "setting": "laser-induced CNV; after laser injury", "value": "blocked"}
    ]},
    {"molecule": "FGF-2: basic fibroblast growth factor, another potent angiogenic cytokine", "values": [
      {"measurement": "volume of CNV", "setting": "laser-induced CNV; [4]", "value": "did not evoke similar responses; also recorded: minor increases"}
    ]},
    {"molecule": "C=CC1=C(C)c2cc3[n-]c(cc4[n-]c(cc5nc(cc1n2)C(C)=C5C=C)c(C)c4CCC(=O)O)c(CCC(=O)O)c3C.[Zn+2]", "note": "[ZnPP, zinc protoporphyrin IX]", "values": [
      {"measurement": "effect on VEGF-A-induced G0/G1 arrest of CEC", "setting": "[3]", "value": "reversed"},
      {"measurement": "effect on VEGF-A-induced suppression of CNV", "setting": "laser-induced CNV", "value": "abolished"},
      {"measurement": "effect on VEGF-A-induced suppression of Ccl-2", "setting": "Ccl-2", "value": "abolished"}
    ]},
    {"molecule": "Cc1cc(C)c(C=C2C(=O)Nc3ccccc32)[nH]1", "note": "[SU5416, 3-((2,4-dimethylpyrrol-5-yl)methylidene]-indolin-2-one]", "values": [
      {"measurement": "effect on VEGF-A-induced suppression of CNV", "setting": "laser-induced CNV", "value": "blocked; also recorded: abrogates"},
      {"measurement": "effect on VEGF-A-induced suppression of Ccl-2", "setting": "Ccl-2", "value": "blocked"},
      {"measurement": "effect on VEGF-A-induced suppression of monocyte recruitment", "setting": "choroidal macrophages", "value": "blocked"}
    ]},
    {"molecule": "OB(O)c1cccc(NCc2cc(O)ccc2O)c1", "note": "[DBAPBA]", "values": [
      {"measurement": "IC50", "setting": "VEGFR-1", "value": 40000, "unit": "nM"},
      {"measurement": "effect on VEGF-A-induced suppression of CNV", "setting": "laser-induced CNV", "value": "blocked; also recorded: reversed by DBAPBA in a dose-dependent fashion"},
      {"measurement": "effect on VEGF-A-induced suppression of Ccl-2", "setting": "Ccl-2", "value": "blocked"},
      {"measurement": "effect on VEGF-A-induced suppression of monocyte recruitment", "setting": "choroidal macrophages", "value": "blocked"}
    ]},
    {"molecule": "B1", "values": [
      {"measurement": "inhibition of VEGFR-1 kinase activity", "setting": "VEGFR-1; in vitro, literature", "value": "inhibits the kinase activity of VEGFR-1"},
      {"measurement": "volume of CNV", "setting": "laser-induced CNV; [4]", "value": "did not alter CNV"},
      {"measurement": "effect on VEGF-A-induced suppression of CNV", "setting": "laser-induced CNV", "value": "abolished"},
      {"measurement": "effect on VEGF-A-induced suppression of CNV", "setting": "laser-induced CNV; listed as recombinant human SPARC", "value": "dose-dependently abolished"}
    ]}
  ]
}
